{
  "source": "patent US8642630B2",
  "about": "“Endogeneous repair factor production accelerators” (Ono Pharmaceutical Co., Ltd., priority 2002, dated 2014)",
  "key": {"VEGF": {"system": "VEGF", "test": "Endogenous repair factor releasing action (in vitro), VEGF by ELISA, Example 10", "assay_type": "cell-based, human", "conditions": "100 nmol/l; for VEGF concentration in culture supernatant: after 72 hours of culturing, average of 3 wells ± SD; for VEGF concentration in supernatants, in words: vs untreated, Dunnett's test", "procedure": "(§1) An angiogenesis kit (manufactured by Kurabo; constituted from normal human umbilical cord vein vascular endothelial cells and normal human skin fibroblasts) was cultured for 3 hours, and then the culture medium (the medium for angiogenesis use attached to the angiogenesis kit was used as the culture medium and cultured at 37° C. under a moist environment of 5% carbon dioxide-95% air, and a carbon dioxide incubator BNA-121D was used as the incubator) was changed and an agent to be tested was added to each well (0.5 ml/well). HGF and VEGF concentrations in the culture supernatants were measured 3 days after the commencement of the culturing. Kinds and concentrations of the agent to be tested were untreated; DMSO: 0.1%; PGE1-αCD: 100 nmol/l; PGE2-αCD: 100 nmol/l; and Compound 3 (EP2 agonist) and Compound 4 (EP4 agonist): 100 nmol/l, and the culturing was carried out by using 3 wells for each concentration. The HGF and VEGF concentrations were measured by using an ELISA kit (R % D system-Funakoshi).\n(§2) In this connection, Compound 3 as an EP2 agonist ((5Z,9β,11α,13E)-17,17-propano-11,16-dihydroxy-9-chloro-20-norprost-5,13-dienoic acid) was dissolved in dimethyl sulfoxide (DMSO) to prepare a 10^−4 mol/l solution which was then used by diluting 1/1000 time with the culture medium.\n(§3) Compound 4 as an EP4 agonist ((11α,13E,15α)-9-oxo-11,15-dihydroxy-16-(3-methoxymethylphenyl)-17,18,19,20-tetranor-5-thiaprost-13-enoic acid) was dissolved in dimethyl sulfoxide (DMSO) to prepare a […] solution which was then used by diluting 1/1000 time with the culture medium.\n(§4) The PGE1-αCD and PGE2-αCD were dissolved in distilled water for injection to prepare 10^−4 mol/l solutions which were then used by diluting 1/1000 time with the culture medium.\n(§5) HGF and VEGF concentrations in the supernatants of the solvent control group were compared with those of the agent-treated groups by Dunnett's test (two-sided test). The significance level was set to 5%.\n(§6) In this connection, the data were shown by average value of 3 wells and standard deviation."}, "[1]": {"system": "normal human umbilical cord vein vascular endothelial cells and normal human skin fibroblasts", "test": "Measurement of angiogenesis acceleration action (in vitro), hollow organ formation, Example 9", "assay_type": "cell-based", "conditions": "10 days of culturing, FIG. 5", "procedure": "An angiogenesis kit (manufactured by Kurabo; constituted from normal human umbilical cord vein vascular endothelial cells and normal human skin fibroblasts) was cultured for 3 hours, and then the culture medium (the medium for angiogenesis use attached to the angiogenesis kit was used as the culture medium and cultured at 37° C. under a moist environment of 5% carbon dioxide-95% air, and a carbon dioxide incubator BNA-121D was used as the incubator) was changed and an agent to be tested was added to each well (0.5 ml/well). The medium exchange was carried out also on the 3rd, 6th and 8th days after commencement of the culturing and the fresh agent to be tested was added. The kind and concentration of the agent to be tested were untreated; DMSO: 0.1%; α-CD: 0.0118, 0.118 and 1.18 mg/ml; PGE2-αCD: 1, 10 and 100 nmol/l; Compound 3 (EP2 agonist), Compound 4 (EP4 agonist), EP1 agonist and EP3 agonist: 1, 10 and 100 nmol/l, VEGF: 0.1, 1 and 10 ng/ml; and HGF: 0.1, 1 and 10 ng/ml, and culturing was carried out by using 3 wells for each concentration. Fixation was carried out 10 days after the commencement of culturing, and staining of hollow organ with anti-CD31 antibody was carried out by using a hollow organ staining kit (manufactured by Kurabo). As the evaluation, Chalkley Grid (a grid lens, Kurabo) was mounted on the eyepiece of a microscope, and the hollow organ formation was evaluated by counting intersections of the randomly arrange points of Chalkley Grid with the formed hollow organ (by referring to the evaluation method of J. Pathol., 177, 275-283 (1995)). The counting was carried out at 12 positions per well, and the total was calculated.\nIn this connection, Compound 3 as an EP2 agonist ((5Z,9β,11α,13E)-17,17-propano-11,16-dihydroxy-9-chloro-20-norprost-5,13-dienoic acid) was dissolved in dimethyl sulfoxide (DMSO) to prepare 10^−4, 10^−5 and 10^−6 mol/l solutions which were then used by diluting 1/1000 time with the culture medium.\nCompound 4 as an EP4 agonist ((11α,13E,15α)-9-oxo-11,15-dihydroxy-16-(3-methoxymethylphenyl)-17,18,19,20-tetranor-5-thiaprost-13-enoic acid) was dissolved in dimethyl sulfoxide (DMSO) to prepare 10^−4, 10^−5 and 10^−6 mol/l solutions which were then used by diluting 1/1000 time with the culture medium.\nThe EP1 agonist ((13E)-(11α,15S,17S)-2,5-ethano-6,9-dioxo-11,15-dihydroxy-17,20-dimethylprost-13-enoic acid; the compound described in Example 1 in the specification of JP-A-11-322709) was dissolved in dimethyl sulfoxide (DMSO) to prepare 10^−4, 10^−5 and 10^−6 mol/l solutions which were then used by diluting 1/1000 time with the culture medium.\nThe EP3 agonist (11α,15α-dimethoxy-9-oxoprost-5Z,13E-dienoic acid; the compound described in Example 1 in the specification of WO98/34916) was dissolved in dimethyl sulfoxide (DMSO) to prepare 10^−4, 10^−5 and 10^−6 mol/l solutions which were then used by diluting 1/1000 time with the culture medium.\nThe PGE2-αCD was dissolved in distilled water for injection to prepare 10^−4, 10^−5 and 10^−6 mol/l solutions which were then used by diluting 1/1000 time with the culture medium.\nAs the VEGF (vascular endothelial growth factor), the 2 μg/ml solution of VEGF contained in the angiogenesis control reagent kit of Kurabo was diluted with the culture medium and used.\nAs the HGF (human hepatocyte growth factor), the 5 μg/ml solution of HGF purchased from R & D System-Funakoshi was diluted with the culture medium and used.\nThe counts of hollow organ formation in the untreated wells were compared with those of the wells treated with respective concentrations of test samples by Dunnett's test (two-sided test). The significance level was set to 5%.\nas §6"}, "HGF": {"system": "HGF", "test": "Endogenous repair factor releasing action (in vitro), HGF by ELISA, Example 10", "assay_type": "cell-based, human", "conditions": "100 nmol/l; for HGF concentration in culture supernatant: after 72 hours of culturing, average of 3 wells ± SD; for HGF concentration in supernatants, in words: vs untreated, Dunnett's test", "procedure": "as §1, §2, §3, §4, §5, §6"}, "[2]": {"system": "mouse sponge transplantation model", "test": "Angiogenesis test using mouse sponge transplantation model, Example 8", "assay_type": "in vivo", "conditions": "14 days of repeated administration", "procedure": "Under anesthesia, dorsal part of a mouse was incised and a discus urethane sponge (about 5 mm in thickness and 13 mm in diameter) was embedded therein. Administration of the agent was carried out by topically administering it directly into the sponge once a day for a total of 14 times starting on the day of the sponge transplantation model preparation, or on the operation-completed day and 7th day thereafter. On the 15th day after the sponge transplantation, the sponge containing granulation tissue was extracted and observed with the naked eye, and then its wet mass was measured. In addition, this was mixed with distilled water of 4 times larger amount than the wet mass, homogenized and centrifuged, and then the supernatant was subjected to the measurement of the hemoglobin content using Hemoglobin 13-Test Wako (manufactured by Wako Pure Chemical Industries).\n• The polylactic acid-glycolic acid copolymer used in Preparation Example 2 was suspended in 0.2 w/v % Tween 80 solution (0.05 ml). In this connection, amount of the polylactic acid-glycolic acid copolymer is identical to the amount contained in Compound 1 MS (200 μg). Compound 1 (20 μg) Group: • Compound 1 (20 μg) was suspended in 0.2 w/v % Tween 80 solution (0.05 ml). Compound 1 (40 μg) Group:\nCompound 1 (40 μg) was suspended in 0.2 w/v % Tween 80 solution (0.05 ml).\n• Compound 1 (200 μg) was suspended in 0.2 w/v % Tween 80 solution (0.05 ml). Compound 1 MS (200 μg) group: • The microsphere preparation produced in Preparation Example 2 containing […] of Compound 1 was suspended in 0.2 w/v % Tween 80 solution (0.05 ml). Compound 1 MS (400 μg) Group: • The microsphere preparation produced in Preparation Example 2 containing 400 μg of Compound 1 was suspended in 0.2 w/v % Tween 80 solution (0.05 ml). Compound 3 (20 μg) Group: • Compound 3 (20 μg) was suspended in 0.2 w/v % Tween 80 solution (0.05 ml)."}, "[3]": {"conditions": "10 nmol/l and 100 nmol/l, vs untreated wells, Dunnett's test"}, "[4]": {"conditions": "20 μg into the sponge once a day, 15th day"}},
  "data": [
    {"smiles": "CCC1(C(O)C/C=C/[C@@H]2[C@@H](C/C=C\\CCCC(=O)O)[C@H](Cl)C[C@H]2O)CCC1", "note": "(stereo partly drawn) [Compound 3, (5Z,9β,11α,13E)-17,17-propano-11,16-dihydroxy-9-chloro-20-norprost-5,13-dienoic acid]", "values": [
      {"measurement": "VEGF concentration in culture supernatant", "setting": "VEGF", "value": "2762 ± 51", "unit": "pg/mL"},
      {"measurement": "VEGF concentration in supernatants, in words", "setting": "VEGF", "value": "significantly increased HGF and VEGF concentrations"},
      {"measurement": "hollow organ formation (Chalkley Grid count), in words", "setting": "[1]; [3]", "value": "significantly accelerated hollow organ formation"},
      {"measurement": "HGF concentration in culture supernatant", "setting": "HGF", "value": "1865 ± 48", "unit": "pg/mL"},
      {"measurement": "HGF concentration in supernatants, in words", "setting": "HGF", "value": "significantly increased HGF and VEGF concentrations"},
      {"measurement": "Hemoglobin content", "setting": "[2]; [4]", "value": "4.588 ± 0.488", "unit": "mg/g wet tissue"},
      {"measurement": "Sponge wet weight", "setting": "[2]; [4]", "value": "0.5193 ± 0.0792", "unit": "g"},
      {"measurement": "formation of granulation in the sponge, in words", "setting": "[2]; 20 μg", "value": "formation of granulation was found"},
      {"measurement": "hemoglobin concentration in the granulation tissue, in words", "setting": "[2]; 20 μg, vs polymer group", "value": "significant increase in the concentration of hemoglobin"}
    ]},
    {"smiles": "COCc1cccc(C[C@H](O)/C=C/[C@H]2[C@H](O)CC(=O)[C@@H]2CCSCCCC(=O)O)c1", "note": "[Compound 4, (11α,13E,15α)-9-oxo-11,15-dihydroxy-16-(3-methoxymethylphenyl)-17,18,19,20-tetranor-5-thiaprost-13-enoic acid]", "values": [
      {"measurement": "VEGF concentration in culture supernatant", "setting": "VEGF", "value": "2936 ± 69", "unit": "pg/mL"},
      {"measurement": "VEGF concentration in supernatants, in words", "setting": "VEGF", "value": "significantly increased HGF and VEGF concentrations"},
      {"measurement": "hollow organ formation (Chalkley Grid count), in words", "setting": "[1]; [3]", "value": "significantly accelerated hollow organ formation"},
      {"measurement": "HGF concentration in culture supernatant", "setting": "HGF", "value": "379 ± 12", "unit": "pg/mL"},
      {"measurement": "HGF concentration in supernatants, in words", "setting": "HGF", "value": "significantly increased HGF and VEGF concentrations"}
    ]},
    {"smiles": "CCCC[C@H](C)C[C@H](O)/C=C/[C@H]1[C@H](O)CC(=O)[C@@H]1CC(=O)C1CCC(C(=O)O)CC1", "note": "(stereo partly drawn) [EP1 agonist, (13E)-(11α,15S,17S)-2,5-ethano-6,9-dioxo-11,15-dihydroxy-17,20-dimethylprost-13-enoic acid, reference compound]", "values": [
      {"measurement": "hollow organ formation (Chalkley Grid count), in words", "setting": "[1]; 1, 10 and 100 nmol/l", "value": "did not exert influence upon hollow organ formation"}
    ]},
    {"smiles": "CCCCC[C@@H](/C=C/[C@H]1[C@H](OC)CC(=O)[C@@H]1C/C=C\\CCCC(=O)O)OC", "note": "[EP3 agonist, 11α,15α-dimethoxy-9-oxoprost-5Z,13E-dienoic acid, reference compound]", "values": [
      {"measurement": "hollow organ formation (Chalkley Grid count), in words", "setting": "[1]; 1, 10 and 100 nmol/l", "value": "did not exert influence upon hollow organ formation"}
    ]},
    {"smiles": "OC[C@H]1O[C@@H]2O[C@H]3[C@H](O)[C@@H](O)[C@@H](O[C@H]4[C@H](O)[C@@H](O)[C@@H](O[C@H]5[C@H](O)[C@@H](O)[C@@H](O[C@H]6[C@H](O)[C@@H](O)[C@@H](O[C@H]7[C@H](O)[C@@H](O)[C@@H](O[C@H]1[C@H](O)[C@H]2O)O[C@@H]7CO)O[C@@H]6CO)O[C@@H]5CO)O[C@@H]4CO)O[C@@H]3CO", "note": "[α-CD]", "values": [
      {"measurement": "hollow organ formation (Chalkley Grid count), in words", "setting": "[1]; 0.0118, 0.118 and 1.18 mg/ml", "value": "did not exert influence upon hollow organ formation"}
    ]}
  ]
}
